# Source: article PMC3914206
# Columns and labels:
# Format in all cases: binding
# Settings in all cases: Compound Concentration 10 µM
# panel of 442 kinases [1] = biological target: panel of 442 kinases (Homo sapiens, UniProt P19784)
# From the text: (§1) We assessed the selectivity of members of this scaffold using the KINOMEscan methodology across a near comprehensive panel of 442 kinases [[18,27]].
# panel of 442 kinases [2] = biological target: T1, panel of 442 kinases (Homo sapiens, UniProt Q00537)
# T1 construct: purchased KINOMEscan
# T1 sequence (Q00537 whole entry): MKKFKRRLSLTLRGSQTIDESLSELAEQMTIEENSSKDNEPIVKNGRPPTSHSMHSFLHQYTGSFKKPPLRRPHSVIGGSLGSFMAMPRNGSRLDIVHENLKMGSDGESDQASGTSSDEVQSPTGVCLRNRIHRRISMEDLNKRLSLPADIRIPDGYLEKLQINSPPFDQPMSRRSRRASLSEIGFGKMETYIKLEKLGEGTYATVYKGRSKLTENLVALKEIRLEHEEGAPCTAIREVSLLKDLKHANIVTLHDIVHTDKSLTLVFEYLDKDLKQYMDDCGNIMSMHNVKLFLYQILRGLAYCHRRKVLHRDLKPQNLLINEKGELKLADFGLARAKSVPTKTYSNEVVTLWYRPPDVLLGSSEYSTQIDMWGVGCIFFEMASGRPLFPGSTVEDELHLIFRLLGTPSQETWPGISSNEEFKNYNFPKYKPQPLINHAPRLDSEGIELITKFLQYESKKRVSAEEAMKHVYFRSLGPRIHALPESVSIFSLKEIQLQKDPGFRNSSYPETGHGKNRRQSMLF
# From the text: as §1
# panel of 442 kinases [3] = biological target: T2, panel of 442 kinases (Homo sapiens, UniProt P54760)
# T2 construct: purchased KINOMEscan
# T2 sequence (P54760 16-987): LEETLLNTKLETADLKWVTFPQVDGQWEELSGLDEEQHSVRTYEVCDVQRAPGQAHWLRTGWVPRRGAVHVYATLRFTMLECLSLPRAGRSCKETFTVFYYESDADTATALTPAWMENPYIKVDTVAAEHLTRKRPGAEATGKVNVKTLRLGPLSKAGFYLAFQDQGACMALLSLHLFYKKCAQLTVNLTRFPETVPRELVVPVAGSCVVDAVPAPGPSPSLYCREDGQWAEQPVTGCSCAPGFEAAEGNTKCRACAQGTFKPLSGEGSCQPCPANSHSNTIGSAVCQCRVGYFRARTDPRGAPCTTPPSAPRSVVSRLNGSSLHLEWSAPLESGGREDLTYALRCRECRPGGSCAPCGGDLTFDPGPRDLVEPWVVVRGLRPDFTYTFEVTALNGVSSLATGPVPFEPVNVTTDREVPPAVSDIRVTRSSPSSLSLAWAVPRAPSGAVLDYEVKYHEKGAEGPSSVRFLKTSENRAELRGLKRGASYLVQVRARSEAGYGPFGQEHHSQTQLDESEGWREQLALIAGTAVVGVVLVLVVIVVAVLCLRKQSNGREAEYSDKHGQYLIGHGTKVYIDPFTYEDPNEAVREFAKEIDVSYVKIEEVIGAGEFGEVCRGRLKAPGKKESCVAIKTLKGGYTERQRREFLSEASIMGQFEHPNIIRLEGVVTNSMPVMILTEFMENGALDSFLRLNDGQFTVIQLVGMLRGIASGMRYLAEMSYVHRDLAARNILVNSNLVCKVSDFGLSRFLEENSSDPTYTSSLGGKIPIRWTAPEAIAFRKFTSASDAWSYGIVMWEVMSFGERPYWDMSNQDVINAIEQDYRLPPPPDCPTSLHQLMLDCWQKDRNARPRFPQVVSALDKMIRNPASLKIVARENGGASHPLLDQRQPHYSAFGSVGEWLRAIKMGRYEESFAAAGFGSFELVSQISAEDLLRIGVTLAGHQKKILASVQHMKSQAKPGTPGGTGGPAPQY
# From the text: as §1
# Chain of panel of 442 kinases (Homo sapiens, UniProt P19784) (P19784 whole entry): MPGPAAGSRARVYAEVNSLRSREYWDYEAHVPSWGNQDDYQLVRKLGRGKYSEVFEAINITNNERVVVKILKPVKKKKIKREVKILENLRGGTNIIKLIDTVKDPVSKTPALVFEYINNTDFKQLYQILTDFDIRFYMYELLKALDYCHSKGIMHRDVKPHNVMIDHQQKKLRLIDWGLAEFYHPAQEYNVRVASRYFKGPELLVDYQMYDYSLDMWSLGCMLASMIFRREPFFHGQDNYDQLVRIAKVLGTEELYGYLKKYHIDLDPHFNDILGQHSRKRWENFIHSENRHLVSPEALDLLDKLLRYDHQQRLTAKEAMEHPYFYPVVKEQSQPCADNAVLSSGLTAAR
Compound,KINOMEscan: CSNK2A2 (panel of 442 kinases [1]),KINOMEscan: PCTK2 (panel of 442 kinases [2]),KINOMEscan: EPHB4 (panel of 442 kinases [3])
COc1cc(C(=O)N2CCC(N3CCN(C)CC3)CC2)ccc1Nc1ncc2c(n1)N(C)c1ccccc1C(=O)N2C [15 (LRRK2-IN-1)],93,83,100
COc1cc(C(=O)N2CCC(N3CCN(C)CC3)CC2)ccc1Nc1ncc2c(n1)N1CCc3cccc(c31)C(=O)N2C [Compound 24],–,95,–
"COc1cc(C(=O)N2CCC(N3CCN(C)CC3)CC2)ccc1Nc1ncc2c(n1)N(C1CCCC1)c1ccccc1C(=O)N2C [Compound 25, 11-cyclopentyl-2-((2-methoxy-4-(4-(4-methylpiperazin-1-yl)piperidine-1-carbonyl)phenyl)amino)-5-methyl-5H-benzo[e]pyrimido[5,4-b][1,4]diazepin-6(11H)-one]",100,80,100
CCOc1cc(C(=O)N2CCC(N3CCN(C)CC3)CC2)ccc1Nc1ncc2c(n1)N(C1CCCC1)c1ccccc1C(=O)N2C [Compound 26],97,100,100
